According to patent US10414774B2, “Compound useful for altering the levels of bile acids for the treatment of diabetes and cardiometabolc disease” (Merck Sharp & Dohme Corp., priority 2016, dated 2019):
Read-outs that look alike come from different tables or passages of the source.

Key:
Human CYP8B1 [1] = biological target: T1, Human CYP8B1 (Homo sapiens, UniProt Q9UNU6)
T1 sequence (Q9UNU6 1-501): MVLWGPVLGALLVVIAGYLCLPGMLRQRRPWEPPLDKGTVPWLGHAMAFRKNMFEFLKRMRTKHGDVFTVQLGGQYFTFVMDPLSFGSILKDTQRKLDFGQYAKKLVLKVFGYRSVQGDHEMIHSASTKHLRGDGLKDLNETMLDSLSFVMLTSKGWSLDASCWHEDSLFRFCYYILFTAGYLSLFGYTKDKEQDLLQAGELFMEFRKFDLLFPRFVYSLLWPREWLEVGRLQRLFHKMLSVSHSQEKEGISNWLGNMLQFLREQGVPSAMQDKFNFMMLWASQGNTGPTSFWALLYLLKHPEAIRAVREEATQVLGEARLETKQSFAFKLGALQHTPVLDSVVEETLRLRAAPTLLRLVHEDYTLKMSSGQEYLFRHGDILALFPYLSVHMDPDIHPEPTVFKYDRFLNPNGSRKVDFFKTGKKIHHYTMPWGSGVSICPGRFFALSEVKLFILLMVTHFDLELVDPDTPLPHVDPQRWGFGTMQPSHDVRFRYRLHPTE

Human CYP8B1 [2] = biological target: T1, Human CYP8B1; assay: Human CYP8B1 Liver Microsome Assay; settings: Human CYP8B1 IC50, human liver microsomes; substrate 7a-hydroxy-4-cholesten-3-one, NADPH; RapidFire MS detection of 7α,12α-dihydroxy-4-cholesten-3-one

For “6-chloro-4-[(3S,4S)-4-(6,7-dihydro[1,2,3]triazolo[1,5-a]pyrazin-5-(4H)-ylcarbonyl)-3-methylpiperidin-1-yl]-2-methylquinoline-3-carbonitrile [Example 94]”, which IC50 (Human CYP8B1 [1]) is on record?
Its IC50 is 4500 nM.

How did the IC50 (Human CYP8B1 [2]) turn out when `Cn1nc(C(F)(F)F)c2c1CN(C(=O)C1CCN(c3c(C#N)cnc4ccc(Cl)cc34)CC1)CC2` [Example 113, 6-chloro-4-(4-{[1-methyl-3-(trifluoromethyl)-1,4,5,7-tetrahydro-6H-pyrazolo[3,4-c]pyridin-6-yl]carbonyl}piperidin-1-yl)quinoline-3-carbonitrile] was run?
The IC50 was 16.1 nM.

How did the IC50 (Human CYP8B1 [2]) turn out when `CCc1ncc2n1CCN(C(=O)C1CCN(c3c(C#N)cnc4ccc(Cl)cc34)CC1)C2` [Example 114, 6-chloro-4-{4-[(3-ethyl-5,6-dihydroimidazo[1,5-a]pyrazin-7(8H)-yl)carbonyl]piperidin-1-yl}quinoline-3-carbonitrile] was run?
The IC50 was 1220 nM.

`CC(C)c1ncc2n1CCN(C(=O)C1CCN(c3c(C#N)cnc4ccc(Cl)cc34)CC1)C2` [Example 115, 6-chloro-4-(4-{[3-(propan-2-yl)-5,6-dihydroimidazo[1,5-a]pyrazin-7(8H)-yl]carbonyl}piperidin-1-yl)quinoline-3-carbonitrile] was tested. Which IC50 (Human CYP8B1 [2]) did it give?
Its IC50 is 1670 nM.

How did the IC50 (Human CYP8B1 [2]) turn out when `CC1CN(c2c(C#N)cnc3ccc(Cl)cc23)CCC1C(=O)N1CCn2c(nnc2C(F)(F)F)C1` (stereo not shown) [Example 116, 6-chloro-4-(3-methyl-4-(3-(trifluoromethyl)-5,6,7,8-tetrahydro-[1,2,4]triazolo[4,3-a]pyrazine-7-carbonyl)piperidin-1-yl)quinoline-3-carbonitrile] was run?
Its IC50 is 1.4 nM.

How did the IC50 (Human CYP8B1 [2]) turn out when `CC1CN(c2c(C#N)cnc3ccc(F)cc23)CCC1C(=O)N1CCn2c(nnc2C(F)(F)F)C1` (stereo not shown) [Example 117, 6-fluoro-4-(3-methyl-4-{[3-(trifluoromethyl)-5,6-dihydro[1,2,4]triazolo[4,3-a]pyrazin-7(8H)-yl]carbonyl}piperidin-1-yl)quinoline-3-carbonitrile] was run?
The IC50 was 1.2 nM.

With `N#Cc1cnc2ccc(Cl)cc2c1N1CCC(C(=O)N2CCn3c(nnc3C(F)(F)F)C2)C(C(F)(F)F)C1` (stereo not shown) [Example 118, 6-chloro-4-[3-(trifluoromethyl)-4-{[3-(trifluoromethyl)-5,6-dihydro[1,2,4]triazolo[4,3-a]pyrazin-7(8H)-yl]carbonyl}piperidin-1-yl]quinoline-3-carbonitrile] as the compound, how does the IC50 (Human CYP8B1 [2]) read?
Its IC50 is 2.1 nM.

Which IC50 (Human CYP8B1 [2]) does the source give for `CC1CN(c2c(C#N)cnc3ccc(C(F)(F)F)cc23)CCC1C(=O)N1CCn2c(nnc2C(F)(F)F)C1` (stereo not shown) [Example 119, 4-(3-methyl-4-{[3-(trifluoromethyl)-5,6-dihydro[1,2,4]triazolo[4,3-a]pyrazin-7(8H)-yl]carbonyl}piperidin-1-yl)-6-(trifluoromethyl)quinoline-3-carbonitrile] here?
Its IC50 is 1.2 nM.

`N#Cc1cnc2ccc(Cl)cc2c1N1CCC(F)(C(=O)N2CCn3c(nnc3C(F)(F)F)C2)CC1` [Example 120, 6-chloro-4-(4-fluoro-4-{[3-(trifluoromethyl)-5,6-dihydro[1,2,4]triazolo[4,3-a]pyrazin-7(8H)-yl]carbonyl}piperidin-1-yl)quinoline-3-carbonitrile] was tested. Which IC50 (Human CYP8B1 [2]) did it give?
The IC50 was 169 nM.

`CC1(C(=O)N2CCn3c(nnc3C(F)(F)F)C2)CCN(c2c(C#N)cnc3ccc(Cl)cc23)CC1` [Example 121, 6-chloro-4-(4-methyl-4-{[3-(trifluoromethyl)-5,6-dihydro[1,2,4]triazolo[4,3-a]pyrazin-7(8H)-yl]carbonyl}piperidin-1-yl)quinoline-3-carbonitrile] was tested. Which IC50 (Human CYP8B1 [2]) did it give?
Its IC50 is 14 nM.

For `Cc1nc2ccc(Cl)cc2c(N2CC[C@H](C(=O)N3CCn4c(nnc4C(F)(F)F)C3)[C@H](C)C2)c1C#N` [Example 122, 6-chloro-2-methyl-4-((3S,4S)-3-methyl-4-(3-(trifluoromethyl)-5,6,7,8-tetrahydro-[1,2,4]triazolo[4,3-a]pyrazine-7-carbonyl)piperidin-1-yl)quinoline-3-carbonitrile], which IC50 (Human CYP8B1 [2]) is on record?
Its IC50 is 0.5 nM.

With `C[C@@H]1CN(c2c(C#N)c[n+]([O-])c3ccc(Cl)cc23)CC[C@@H]1C(=O)N1CCn2c(nnc2C(F)(F)F)C1` [Example 123, 6-chloro-3-cyano-4-((3S,4S)-3-methyl-4-(3-(trifluoromethyl)-5,6,7,8-tetrahydro-[1,2,4]triazolo[4,3-a]pyrazine-7-carbonyl)piperidin-1-yl)quinoline 1-oxide] as the compound, how does the IC50 (Human CYP8B1 [2]) read?
The IC50 was 1.9 nM.

Which IC50 (Human CYP8B1 [2]) does the source give for `COc1nc2ccc(Cl)cc2c(N2CCC(C(=O)N3CCn4c(nnc4C(F)(F)F)C3)C(C)C2)c1C#N` (stereo not shown) [Example 126, 6-chloro-2-methoxy-4-(3-methyl-4-{[3-(trifluoromethyl)-5,6-dihydro[1,2,4]triazolo[4,3-a]pyrazin-7(8H)-yl]carbonyl}piperidin-1-yl)quinoline-3-carbonitrile] here?
Its IC50 is 210 nM.

`N#Cc1cnc2ccc(Cl)cc2c1N1CCN(C(=O)N2CCn3c(nnc3C(F)(F)F)C2)C2(CC2)C1` [Example 127, 6-chloro-4-(4-{[3-(trifluoromethyl)-5,6-dihydro[1,2,4]triazolo[4,3-a]pyrazin-7(8H)-yl]carbonyl}-4,7-diazaspiro[2.5]oct-7-yl)quinoline-3-carbonitrile] was tested. Which IC50 (Human CYP8B1 [2]) did it give?
Its IC50 is 98 nM.

`C[C@@H]1CN(c2c(C#N)cnc3ccc(Cl)cc23)CCN1C(=O)N1CCn2c(nnc2C(F)(F)F)C1` [Example 128, 6-chloro-4-[(3R)-3-methyl-4-{[3-(trifluoromethyl)-5,6-dihydro[1,2,4]triazolo[4,3-a]pyrazin-7(8H)-yl]carbonyl}piperazin-1-yl]quinoline-3-carbonitrile] was tested. Which IC50 (Human CYP8B1 [2]) did it give?
The IC50 was 2.9 nM.

How did the IC50 (Human CYP8B1 [2]) turn out when `N#Cc1cnc2ccc(Cl)cc2c1N1CCN(C(=O)N2CCn3c(nnc3C(F)(F)F)C2)CC1` [Example 129, 6-chloro-4-(4-{[3-(trifluoromethyl)-5,6-dihydro[1,2,4]triazolo[4,3-a]pyrazin-7(8H)-yl]carbonyl}piperazin-1-yl)quinoline-3-carbonitrile] was run?
Its IC50 is 386 nM.
